# Test results: US4442214A, “Thermo-stable micro-organism” (Development Finance Corporation of New Zealand, priority 1979, dated 1984)
# Read-outs that look alike come from different tables or passages of the source.
# B1: THERMOLYSIN: thermophilic protease from BACILLUS THERMOPROTEOLYTICUS, published data (protein, UniProt P00800 233-548, looked up)
# Thermolysin: ITGTSTVGVGRGVLGDQKNINTTYSTYYYLQDNTRGNGIFTYDAKYRTTLPGSLWADADNQFFASYDAPAVDAHYYAGVTYDYYKNVHNRLSYDGNNAAIRSSVHYSQGYNNAFWNGSQMVYGDGDGQTFIPLSGGIDVVAHELTHAVTDYTAGLIYQNESGAINEAISDIFGTLVEFYANKNPDWEIGEDVYTPGISGDSLRSMSDPAKYGDPDHYSKRYTGTQDNGGVHINSGIINKAAYLISQGGTHYGVSVVGIGRDKLGKIFYRALTQYLTPTSNFSQLRAAAVQSATDLYGSTSQEVASVKQAFDAVGVK
# Experiments:
# [1] = system: NADH and succinate oxidases; test: Oxidase system activities (oxygen uptake) with inhibitors; format: biochemical; conditions: THERMUS T-351 oxidase systems
# Method: Oxygen uptake was measured polarographically using a Rank electrode (Rank Brothers, Bottisham, Cambridge, England). The reaction mixture consisted of 0.1 M KH2 PO4 /Na2 HPO4 buffer pH 7.0, a suitable amount of membrane particle protein, 50 μmol of substrate (except in the case of NADH were 5 μmol were used), in a final volume of 2.5 ml.
# Buffers were equilibrated at the desired temperature with sparged air for 30 minutes.
# Particles were equilibrated in the electrode for 2 minutes prior to measurement of oxygen uptake. Rates were measured over the first minute.
# CALDOLYSIN = test: Response of CALDOLYSIN to inhibitors; format: biochemical, THERMUS T-351
# [2] = 80° C.; published data; cited from earlier work
Molecule,relative effect on NADH oxidase and succinate oxidase [1],further results
CCCCCCCc1cc(O)c2ccccc2[n+]1[O-] [2-heptyl-4-hydroxyquinoline-N-oxide],more effective inhibitors of succinate oxidase,
c1ccc(-c2ccnc3c2ccc2c(-c4ccccc4)ccnc23)cc1 [Bathophenanthroline],more effective inhibitors of succinate oxidase,
O=C(O)CN(CCOCCOCCN(CC(=O)O)CC(=O)O)CC(=O)O [EGTA],,% Inhibitor of Activity (CALDOLYSIN; inhibitor 1 mM): 18%; % Inhibitor of Activity (CALDOLYSIN; inhibitor 10 mM): 45%
O=C(O)CI [Iodoacetic acid],,% Inhibitor of Activity (CALDOLYSIN): 60%
O=S(=O)(F)Cc1ccccc1 [Phenylmethyl Sulfonyl Fluoride],,% Inhibitor of Activity (CALDOLYSIN; inhibitor 10 mM): 10%
C=C(C)[C@H]1Cc2c(ccc3c2O[C@@H]2COc4cc(OC)c(OC)cc4[C@@H]2C3=O)O1 [Rotenone],more effect on the NADH oxidase,
CCC1(CCC(C)C)C(=O)NC(=O)NC1=O [amytal],affected NADH and succinate oxidases equally,
antimycin A,more effective inhibitors of succinate oxidase,
B1,,HALF-LIFE [2]: 1 h
